Assay results published in patent US11464763B2, “Parasiticidal compositions comprising an isoxazoline active agent, methods and uses thereof” (BOEHRINGER INGELHEIM ANIMAL HEALTH USA INC., priority 2011, dated 2022).

Assays:
Format in all cases: in vivo
[1] = test system: Ctenocephalides felis; test: Long lasting spot-on efficacy against Ctenocephalides felis fleas in cats (Example 9)
Procedure: The efficacy of spot-on compositions comprising Cmpd. A in DMI at different doses against Ctenocephalides felis fleas in cats was studied. Four treatment groups were formed with five cats per treatment group: Group 1—untreated control; Group 2—Compound A at 5.0% (w/v) in DMI to deliver a dose of 5 mg/kg; Group 3—Compound A at a concentration of 10.0% (w/v) in DMI to deliver a dose of 10 mg/kg; and Group 4—Compound A at a concentration of 15.0% (w/v) in DMI to deliver a dose of 15 mg/kg. Treatment was administered once on Day 0. The cats were each infested with approximately 100 C. felis fleas at each time point evaluated.
Cats in all treatment groups were infested on Days −1, 0 (approx. 12 h following treatment), 7, 28, 49, 70, 91, 105, 119 and 133. Cats were also infested on Days 126 and 140 (Treatment Groups 1 and 2); Days 147, 154, 155, 161, 168 and 175 (Treatment Groups 1, 3 and 4); Days 182, 189 and 197 (Treatment Groups 1 and 4). After each infestation, fleas were removed and counted approximately 48 hours (±3 hours) for most time points.

[2] = test system: Ctenocephalides felis; test: Spot-on efficacy against Ctenocephalides felis fleas on dogs, 40% DES/DMI (Example 5); conditions: 4.0 mg/kg
Procedure: The efficacy of a formulation comprising an isoxazoline compound (Cmpd. A) in a carrier comprising 40% DES/DMI against Ctenocephalides felis fleas and Rhipicephalus sanguineus ticks in Dogs was studied. […] Three treatment groups containing three dogs each were evaluated. All dogs were treated once topically on Day 0 by parting the hair and applying the solution from a syringe directly onto the skin in a single spot on the midline of the neck between the base of the skull and the shoulder blades.
Treatment Group 1 was a placebo control and received 0.067 mL/kg of body weight. Treatment Group 2 was administered a topical spot-on formulation comprising 6.0% (w/v) Cmpd. A in 40% DES/DMI to deliver a dose of 4.0 mg/kg body weight. Treatment Group 3 was administered a topical spot-on formulation comprising 12% (w/v) Cmpd. A in 40% DES/DMI to deliver a dose of 4.0 mg/kg body weight.
All dogs were infested with approximately 100 C. felis on Days −1, 7, 14, 21, 28, 35 and 42. Fleas were counted upon removal from dogs approximately 24 hours post infestation on Days 1, 8, 15, 22, 29, 36 and 43. The % reduction (efficacy) of each Treatment Group over time is listed in Tables 6A, 6B and 7, respectively.

[3] = test system: Haematobia irritans; test: Pour-on efficacy against Haematobia irritans (horn fly) in cattle (Example 14); conditions: for % Reduction: Group 2: pour-on 10% in DES, 1 ml/10 kg
Procedure: The efficacy of a pour-on formulation of the invention comprising isoxazoline Compound A was tested and compared with an untreated control. Two healthy, female Angus crossbread cattle of one year of age weighing between 224 to 330 kg were used in each study group. Cattle in Group 1 were untreated (control) and cattle in Group 2 were treated with a pour-on formulation comprising Compound A at a concentration of 10% (w/v) in DES at a dose of 1 ml/10 kg once on Day 0. The formulation was applied by measuring the required amount of the solution into a marked disposable syringe and applying the material evenly along the mid-line of the back of each animal from the withers to the tail head. Each animal was infested with approximately 200 horn flies released into each of the animal rooms on Day 1, approximately 24 hours post treatment. Approximately 200 horn flies were released again on Days 7, 14, 21, 28 and 36. Horn fly counts were performed at 5 hours and 24 hours after each infestation. Tables 14A and 14B below show the efficacy of the pour-on formulation of the invention.

O=C(CNC(=O)c1ccc(C2=NOC(c3cc(Cl)cc(C(F)(F)F)c3)(C(F)(F)F)C2)c2ccccc12)NCC(F)(F)F (stereo not drawn) [Compound A, 4-[5-[3-chloro-5-(trifluoromethyl)phenyl]-4,5-dihydro-5-(trifluoromethyl)-3-isoxazolyl]-N-[2-oxo-2-[(2,2,2-trifluoroethyl)amino]ethyl]-1-naphthalanecarboxamide]
efficacy against fleas ([1]; Group 2 (5 mg/kg), up to Day 121): 90% | % Reduction Fleas ([1]; Group 2: 5.0% in DMI, 5 mg/kg, Day 0 (12 hr)): 61.1% | % Reduction Fleas ([1]; Group 2: 5.0% in DMI, 5 mg/kg, Day 2): 100.0% | % Reduction Fleas ([1]; Group 2: 5.0% in DMI, 5 mg/kg, Day 9): 100.0% | % Reduction Fleas ([1]; Group 2: 5.0% in DMI, 5 mg/kg, Day 30): 100.0% | % Reduction Fleas ([1]; Group 2: 5.0% in DMI, 5 mg/kg, Day 51): 100.0% | % Reduction Fleas ([1]; Group 2: 5.0% in DMI, 5 mg/kg, Day 72): 100.0% | % Reduction Fleas ([1]; Group 2: 5.0% in DMI, 5 mg/kg, Day 93): 100.0% | % Reduction Fleas ([1]; Group 2: 5.0% in DMI, 5 mg/kg, Day 107): 100.0% | % Reduction Fleas ([1]; Group 2: 5.0% in DMI, 5 mg/kg, Day 121): 92.3% | % Reduction Fleas ([1]; Group 2: 5.0% in DMI, 5 mg/kg, Day 128): 89.1% | % Reduction Fleas ([1]; Group 2: 5.0% in DMI, 5 mg/kg, Day 135): 88.3% | % Reduction Fleas ([1]; Group 2: 5.0% in DMI, 5 mg/kg, Day 142): 80.0% | efficacy against fleas ([1]; Group 3 (10 mg/kg), up to Day 163): 90% | % Reduction Fleas ([1]; Group 3: 10.0% in DMI, 10 mg/kg, Day 0 (12 hr)): 95.4% | % Reduction Fleas ([1]; Group 3: 10.0% in DMI, 10 mg/kg, Day 2): 100.0% | % Reduction Fleas ([1]; Group 3: 10.0% in DMI, 10 mg/kg, Day 9): 100.0% | % Reduction Fleas ([1]; Group 3: 10.0% in DMI, 10 mg/kg, Day 30): 100.0% | % Reduction Fleas ([1]; Group 3: 10.0% in DMI, 10 mg/kg, Day 51): 100.0% | % Reduction Fleas ([1]; Group 3: 10.0% in DMI, 10 mg/kg, Day 72): 100.0% | % Reduction Fleas ([1]; Group 3: 10.0% in DMI, 10 mg/kg, Day 93): 100.0% | % Reduction Fleas ([1]; Group 3: 10.0% in DMI, 10 mg/kg, Day 107): 100.0% | % Reduction Fleas ([1]; Group 3: 10.0% in DMI, 10 mg/kg, Day 121): 100.0% | % Reduction Fleas ([1]; Group 3: 10.0% in DMI, 10 mg/kg, Day 135): 99.8% | % Reduction Fleas ([1]; Group 3: 10.0% in DMI, 10 mg/kg, Day 149): 99.5% | % Reduction Fleas ([1]; Group 3: 10.0% in DMI, 10 mg/kg, Day 155): 50.0% | % Reduction Fleas ([1]; Group 3: 10.0% in DMI, 10 mg/kg, Day 157): 98.1% | % Reduction Fleas ([1]; Group 3: 10.0% in DMI, 10 mg/kg, Day 163): 94.5% | % Reduction Fleas ([1]; Group 3: 10.0% in DMI, 10 mg/kg, Day 170): 87.8% | % Reduction Fleas ([1]; Group 3: 10.0% in DMI, 10 mg/kg, Day 177): 70.8% | efficacy against fleas ([1]; Group 4 (15 mg/kg), up to Day 191): 90% | % Reduction Fleas ([1]; Group 4: 15.0% in DMI, 15 mg/kg, Day 0 (12 hr)): 85.3% | % Reduction Fleas ([1]; Group 4: 15.0% in DMI, 15 mg/kg, Day 2): 100.0% | % Reduction Fleas ([1]; Group 4: 15.0% in DMI, 15 mg/kg, Day 9): 100.0% | % Reduction Fleas ([1]; Group 4: 15.0% in DMI, 15 mg/kg, Day 30): 100.0% | % Reduction Fleas ([1]; Group 4: 15.0% in DMI, 15 mg/kg, Day 51): 100.0% | % Reduction Fleas ([1]; Group 4: 15.0% in DMI, 15 mg/kg, Day 72): 100.0% | % Reduction Fleas ([1]; Group 4: 15.0% in DMI, 15 mg/kg, Day 93): 100.0% | % Reduction Fleas ([1]; Group 4: 15.0% in DMI, 15 mg/kg, Day 107): 100.0% | % Reduction Fleas ([1]; Group 4: 15.0% in DMI, 15 mg/kg, Day 121): 100.0% | % Reduction Fleas ([1]; Group 4: 15.0% in DMI, 15 mg/kg, Day 135): 100.0% | % Reduction Fleas ([1]; Group 4: 15.0% in DMI, 15 mg/kg, Day 149): 100.0% | % Reduction Fleas ([1]; Group 4: 15.0% in DMI, 15 mg/kg, Day 155): 78.0% | % Reduction Fleas ([1]; Group 4: 15.0% in DMI, 15 mg/kg, Day 157): 100.0% | % Reduction Fleas ([1]; Group 4: 15.0% in DMI, 15 mg/kg, Day 163): 100.0% | % Reduction Fleas ([1]; Group 4: 15.0% in DMI, 15 mg/kg, Day 170): 96.2% | % Reduction Fleas ([1]; Group 4: 15.0% in DMI, 15 mg/kg, Day 177): 94.8% | % Reduction Fleas ([1]; Group 4: 15.0% in DMI, 15 mg/kg, Day 184): 95.7% | % Reduction Fleas ([1]; Group 4: 15.0% in DMI, 15 mg/kg, Day 191): 90.6% | % Reduction Fleas ([1]; Group 4: 15.0% in DMI, 15 mg/kg, Day 199): 79.2% | % Reduction ([2]; Group 2: 6.0% in 40% DES/DMI, Day 1): 100.0% | % Reduction ([2]; Group 2: 6.0% in 40% DES/DMI, Day 8): 100.0% | % Reduction ([2]; Group 2: 6.0% in 40% DES/DMI, Day 15): 100.0% | % Reduction ([2]; Group 2: 6.0% in 40% DES/DMI, Day 22): 100.0% | % Reduction ([2]; Group 2: 6.0% in 40% DES/DMI, Day 29): 100.0% | % Reduction ([2]; Group 2: 6.0% in 40% DES/DMI, Day 36): 100.0% | % Reduction ([2]; Group 2: 6.0% in 40% DES/DMI, Day 43): 99.2% | % Reduction ([2]; Group 3: 12% in 40% DES/DMI, Day 1): 100.0% | % Reduction ([2]; Group 3: 12% in 40% DES/DMI, Day 8): 100.0% | % Reduction ([2]; Group 3: 12% in 40% DES/DMI, Day 15): 100.0% | % Reduction ([2]; Group 3: 12% in 40% DES/DMI, Day 22): 100.0% | % Reduction ([2]; Group 3: 12% in 40% DES/DMI, Day 29): 100.0% | % Reduction ([2]; Group 3: 12% in 40% DES/DMI, Day 36): 100.0% | % Reduction ([2]; Group 3: 12% in 40% DES/DMI, Day 43): 100.0% | Efficacy against horn flies ([3]; 24 hours after infestation through the end of the study (day 36)): at least 90% | % Reduction ([3]; Day 1 (5 h)): 81.2% | % Reduction ([3]; Day 2 (24 h)): 99.6% | % Reduction ([3]; Day 7 (5 h)): 84.2% | % Reduction ([3]; Day 8 (24 h)): 99.7% | % Reduction ([3]; Day 14 (5 h)): 89.5% | % Reduction ([3]; Day 15 (24 h)): 99.2% | % Reduction ([3]; Day 21 (5 h)): 67.6% | % Reduction ([3]; Day 22 (24 h)): 97.4% | % Reduction ([3]; Day 28 (5 h)): 11.7% | % Reduction ([3]; Day 29 (24 h)): 90.4%
